Test results reported in ChEMBL document CHEMBL5608200, “Design, synthesis, and evaluation of antitumor activity of 2-arylmethoxy-4-(2-fluoromethyl-biphenyl-3-ylmethoxy) benzylamine derivatives as PD-1/PD-l1 inhibitors” (Eur J Med Chem, 2024).
Calls of active or inactive are those of the source. No cut-off for these calls is given here.

Assays:
[1] = Toxicity in PD-1/PD-L1 humanized C57BL/6 mouse implanted with mouse MC38 cells expressing hPD-L1 assessed as change in kidney morphology at 50 mg/kg, IG QD administered for 15 days by H and E staining based inverted fluorescent microscopic assay; assay type: organism-based, MC-38; conditions: in vivo, po, 360 h, time 15 day
MC-38 [2] = assay: Antitumor activity against mouse MC38 cells expressing hPD-L1 implanted in PD-1/PD-L1 humanized C57BL/6 mouse assessed as upregulation of perforin expression at 50 mg/kg, IG QD administered for 15 days by immunohistochemistry analysis; assay type: functional, organism-based; conditions: time 15.0 day
[3] = Cytotoxicity against human PBMCs at 1 to 4 uM by CCK-8 assay; assay type: toxicity, cell-based; conditions: pbmc, dose 1-4 µM
Jurkat = assay: Cytotoxicity against human Jurkat T cells at 1 to 32 uM incubated for 48 hrs by CCK-8 assay; assay type: functional, cell-based; conditions: dose 1-32 µM
HCC827 [4] = assay: Induction of T-cell mediated apoptosis in human HCC827 cells cocultured with PMA-stimulated Jurkat T cells assessed as mortality rate at 32 uM incubated for 48 hrs by CCK-8 assay; assay type: functional
[5] = Apparent volume of distribution in Sprague-Dawley rat at 50 mg/kg, IG measured upto 48 hrs by LC-MS/MS analysis; assay type: ADME, organism-based; conditions: in vivo, po
MC-38 [6] = assay: Antitumor activity against mouse MC38 cells expressing hPD-L1 implanted in PD-1/PD-L1 humanized C57BL/6 mouse assessed as upregulation of CXCL9 mRNA expression at 50 mg/kg, IG QD administered for 15 days by RT-PCR analysis; assay type: functional, organism-based; conditions: time 15.0 day
[7] = Toxicity in PD-1/PD-L1 humanized C57BL/6 mouse implanted with mouse MC38 cells expressing hPD-L1 assessed as change in lung morphology at 50 mg/kg, IG QD administered for 15 days by H and E staining based inverted fluorescent microscopic assay; assay type: organism-based, MC-38; conditions: in vivo, po, 360 h, time 15 day
[8] = Toxicity in PD-1/PD-L1 humanized C57BL/6 mouse implanted with mouse MC38 cells expressing hPD-L1 assessed as change in liver morphology at 50 mg/kg, IG QD administered for 15 days by H and E staining based inverted fluorescent microscopic assay; assay type: organism-based, MC-38; conditions: in vivo, po, 360 h, time 15 day
HCC827 [9] = assay: Induction of T-cell mediated apoptosis in human HCC827 cells cocultured with PMA-stimulated Jurkat T cells assessed as mortality rate at 16 uM incubated for 48 hrs by CCK-8 assay; assay type: functional
MDA-MB-231 [10] = assay: Cytotoxicity against human MDA-MB-231 cells at 1 to 32 uM incubated for 48 hrs by CCK-8 assay; assay type: functional, cell-based; conditions: dose 1-32 µM
[11] = AUC(0 to infinity) in Sprague-Dawley rat at 10 mg/kg, iv measured upto 48 hrs by LC-MS/MS analysis; assay type: ADME, organism-based; conditions: in vivo
MC-38 [12] = assay: Antitumor activity against mouse MC38 cells expressing hPD-L1 implanted in PD-1/PD-L1 humanized C57BL/6 mouse assessed as upregulation of CXCL10 mRNA expression at 50 mg/kg, IG QD administered for 15 days by RT-PCR analysis; assay type: functional, organism-based; conditions: time 15.0 day
[13] = Cmax in Sprague-Dawley rat at 50 mg/kg, IG measured upto 48 hrs by LC-MS/MS analysis; assay type: ADME, organism-based; conditions: in vivo, po
[14] = AUC(0 to t) in Sprague-Dawley rat at 10 mg/kg, iv measured upto 48 hrs by LC-MS/MS analysis; assay type: ADME, organism-based; conditions: in vivo
HCC827 [15] = assay: Induction of T-cell mediated apoptosis in human HCC827 cells cocultured with PMA-stimulated Jurkat T cells assessed as mortality rate at 4 uM incubated for 48 hrs by CCK-8 assay; assay type: functional
MC-38 [16] = assay: Antiproliferative activity against mouse MC38 cells expressing hPD-L1 incubated for 48 hrs by CCK8 assay; conditions: MC-38, 48 h
MC-38 [17] = assay: Antitumor activity against mouse MC38 cells expressing hPD-L1 implanted in PD-1/PD-L1 humanized C57BL/6 mouse assessed as tumor growth inhibition at 50 mg/kg, IG QD administered for 15 days and measured every day by caliper method; assay type: functional; conditions: MC-38, po, 360 h, time 15 day, read-out: TGI
[18] = Tmax in Sprague-Dawley rat at 10 mg/kg, iv measured upto 48 hrs by LC-MS/MS analysis; assay type: ADME, organism-based; conditions: in vivo
[19] = Half-life in Sprague-Dawley rat at 10 mg/kg, iv measured upto 48 hrs by LC-MS/MS analysis; assay type: ADME, organism-based; conditions: in vivo
MC-38 [20] = assay: Antitumor activity against mouse MC38 cells expressing hPD-L1 implanted in PD-1/PD-L1 humanized C57BL/6 mouse assessed as upregulation of granzyme B expression at 50 mg/kg, IG QD administered for 15 days by immunohistochemistry analysis; assay type: functional, organism-based; conditions: time 15.0 day
[21] = Toxicity in PD-1/PD-L1 humanized C57BL/6 mouse implanted with mouse MC38 cells expressing hPD-L1 assessed as weight loss at 50 mg/kg, IG QD administered for 15 days; assay type: organism-based, MC-38; conditions: in vivo, po, 360 h, time 15 day
A549 = assay: Cytotoxicity against human A549 cells at 1 to 32 uM incubated for 48 hrs by CCK-8 assay; assay type: functional, cell-based; conditions: dose 1-32 µM
MC-38 [22] = assay: Antitumor activity against mouse MC38 cells expressing hPD-L1 implanted in PD-1/PD-L1 humanized C57BL/6 mouse assessed as tumor growth inhibition at 50 mg/kg, IG; assay type: functional; conditions: MC-38, po, read-out: TGI
[23] = AUC(0 to t) in Sprague-Dawley rat at 50 mg/kg, IG measured upto 48 hrs by LC-MS/MS analysis; assay type: ADME, organism-based; conditions: in vivo, po
MDA-MB-231 [24] = assay: Induction of T-cell mediated apoptosis in human MDA-MB-231 cells cocultured with PMA-stimulated Jurkat T cells assessed as mortality rate at 16 uM incubated for 48 hrs by CCK-8 assay; assay type: functional
MC-38 [25] = assay: Antitumor activity against mouse MC38 cells expressing hPD-L1 implanted in PD-1/PD-L1 humanized C57BL/6 mouse assessed as upregulation of CXCR3 mRNA expression at 50 mg/kg, IG QD administered for 15 days by RT-PCR analysis; assay type: functional, organism-based; conditions: time 15.0 day
HCC827 [26] = assay: Induction of T-cell mediated apoptosis in human HCC827 cells cocultured with PMA-stimulated Jurkat T cells assessed as mortality rate at 8 uM incubated for 48 hrs by CCK-8 assay; assay type: functional
[27] = Toxicity in PD-1/PD-L1 humanized C57BL/6 mouse implanted with mouse MC38 cells expressing hPD-L1 assessed as nephrotoxicity at 50 mg/kg, IG QD administered for 15 days; assay type: organism-based, MC-38; conditions: in vivo, po, 360 h, time 15 day
[28] = Cmax in Sprague-Dawley rat at 10 mg/kg, iv measured upto 48 hrs by LC-MS/MS analysis; assay type: ADME, organism-based; conditions: in vivo
MDA-MB-231 [29] = assay: Induction of T-cell mediated apoptosis in human MDA-MB-231 cells cocultured with PMA-stimulated Jurkat T cells assessed as mortality rate at 8 uM incubated for 48 hrs by CCK-8 assay; assay type: functional
[30] = Oral bioavilability in Sprague-Dawley rat at 50 mg/kg measured upto 48 hrs by LC-MS/MS analysis; assay type: ADME, organism-based; conditions: in vivo
[31] = Tmax in Sprague-Dawley rat at 50 mg/kg, IG measured upto 48 hrs by LC-MS/MS analysis; assay type: ADME, organism-based; conditions: in vivo, po
MC-38 [32] = assay: Antitumor activity against mouse MC38 cells expressing hPD-L1 implanted in PD-1/PD-L1 humanized C57BL/6 mouse assessed as increase in proportion of CD3+/CD8+ T cells at 50 mg/kg, IG QD administered for 15 days by flow cytometry analysis; assay type: functional, organism-based; conditions: time 15.0 day

For `N#Cc1cncc(COc2cc(OCc3cccc(-c4ccc5c(c4)OCCO5)c3C(F)F)ccc2CNCCO)c1`, the Activity [1] was “Non-Toxic”, the Activity (MC-38 [2]) was “Active” and the Activity [3] was “Non-Toxic”. The Activity (Jurkat) was “inactive”, the Activity (HCC827 [4]) was 71.2% and the Vz [5] was 31.76 L/kg. For the same molecule, the Activity (MC-38 [6]) was “Active”, the Activity [7] was “Non-Toxic” and the Activity [8] was “Non-Toxic”. For the same molecule, the Activity (HCC827 [9]) was 59.6%, the Activity (MDA-MB-231 [10]) was “inactive” and the AUC(0-inf) [11] was 13900 ng·h/mL. The Activity (MC-38 [12]) was “Active”, the Cmax [13] was 13500 ng/mL and the AUC(0-t) at 48 h [14] was 12800 ng·h/mL. For the same molecule, the Activity (HCC827 [15]) was 40.4%, the IC50 (MC-38 [16]) was over 8 µM and the inhibition in vivo at 50 mg/kg (MC-38 [17]) was 57.3%. The Tmax [18] was 7.8 min, the t1/2 [19] was 2.47 h and the Activity (MC-38 [20]) was “Active”. For the same molecule, the Activity [21] was “Non-Toxic”, the Activity (A549) was “inactive” and the inhibition in vivo at 50 mg/kg (MC-38 [22]) was 62.4%. For the same molecule, the AUC(0-t) at 48 h [23] was 41800 ng·h/mL, the Activity (MDA-MB-231 [24]) was 57.1% and the Activity (MC-38 [25]) was “Active”. The Activity (HCC827 [26]) was 51.7%, the Activity [27] was “Non-Toxic” and the Cmax [28] was 4560 ng/mL. The Activity (MDA-MB-231 [29]) was 45.9%, the bioavailability [30] was 65.3% and the Tmax [31] was 2.38 h. The Activity (MC-38 [32]) was “Active”.
